# From US6207393A, “Inhibition of intracellular signal transduction by 14-3-3-binding peptides” (Washington University, priority 1999, dated 2001)
# Several values for one entry are separate records, joined by “and”; a condition that tells them apart may be missing. Equal values may be shown once. Where a SMILES comes first, the peptide text is derived from it. [ ]: non-standard residue; d: D form. pS = N[C@@H](COP(=O)(O)O)C(=O)O
# How the values were obtained:
# 14-3-3 zeta [1] = target: T1, 14-3-3 zeta (Homo sapiens, UniProt P63104); assay: Displacement of 32P-labeled phosphorylated Raf-259 peptide from immobilized GST/14-3-3 zeta (scintigraphy); format: binding; conditions: non-radiolabeled competitors
# T1 construct: made in house; host or cells: E. coli DH5α (vector pGEX-KT)
# T1 sequence (P63104 1-245): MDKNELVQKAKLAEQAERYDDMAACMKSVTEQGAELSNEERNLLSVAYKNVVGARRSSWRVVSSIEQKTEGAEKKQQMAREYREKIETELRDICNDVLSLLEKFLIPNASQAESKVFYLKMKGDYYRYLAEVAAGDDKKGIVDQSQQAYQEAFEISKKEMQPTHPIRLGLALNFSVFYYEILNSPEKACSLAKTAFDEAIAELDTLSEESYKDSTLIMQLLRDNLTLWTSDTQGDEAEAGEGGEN
# Experimental: The 14-3-3 protein isoforms for use in binding studies with the above peptides were prepared as proteins fused with glutathione-S-transferase (GST) and immobilized to glutathione agarose beads. GST/14-3-3 fusion proteins were made by generating BamHI and EcoRI restriction endonuclease sites (underlined) at the 5' and 3' ends respectively of the 14-3-3 cDNAs by polymerase chain reaction (PCR) using the following isoform sequence specific pairs of primers: 14-3-3 beta, […] (SEQ ID NO: 11), […] (SEQ ID NO: 12); 14-3-3 eta […] (SEQ ID NO: 13), […] (SEQ ID NO: 14); 14-3-3 tau […] (SEQ ID NO: 15), […] (SEQ ID NO: 16); 14-3-3 zeta […] (SEQ ID NO: 17), […] (SEQ ID NO: 18). The cDNA products were digested with BamHI and EcoRI, subcloned into the vector pGEX-KT (Guan and Dixon, Anal Biochem 192: 262-7, 1991 which is incorporated by reference). The vector was used to transform the DH5α strain of E. Coli. GST-14-3-3 fusion protein expression in log-growth phase bacterial cultures was accomplished by induction with 100 μM isopropyl β-D-thiogalactopyranoside (IPTG; Gold Biotechnology, St. Louis) for 4 hours. Cells were disrupted by sonication and lysates, containing 1% Triton X-100, were incubated with glutathione agarose beads (Sigma, St. Louis) at 4° C. overnight. Fusion proteins were eluted by incubation with 10 mM reduced glutathione (Sigma, St. Louis) in phosphate buffered saline for 1 hour at room temperature, dialyzed in phosphate buffered saline and quantitated by Coomassie staining SDS polyacrylamine gels compared against bovine serum albumin standards.
# The Raf-259 peptide (SEQ ID NO: 4) was phosphorylated in vitro using protein kinase A (PKA) and [^32 P]-γ-ATP following the manufacturers instruction (PKA, New England Biolabs) with 20 μCi of [^32 P]-γ-ATP (NEN-Dupont, 6000 Ci/mmol). The efficiency of phosphorylation was calculated to be between 7 and 12% based upon the specific activity of the labelled peptide.
# The labeled peptide was then incubated with immobilized 14-3-3 zeta fusion protein and binding of the labelled peptide was measured. […] Binding was also sequence specific. […]
# 14-3-3 zeta [2] = target: T1, 14-3-3 zeta; assay: SPR competitive inhibition of 14-3-3 zeta binding to chip-coupled phosphorylated Raf-259 peptide; conditions: 14-3-3 zeta 0.5-1.0 μM; competitor 1-50 μM; relative affinity only
# Experimental: (§1) The ability of each peptide to inhibit binding of 14-3-3 zeta to the phosphorylated peptide was then tested in a range of concentrations between 1 and 50 μM. 14-3-3 zeta was prepared according to the methods in Example 1 and binding affinities and specificities were determined using the peptides in Table 2. The 14-3-3 zeta fusion proteins (0.5-1.0 μM) were pre-incubated with a given peptide at concentrations between 1 μM and 50 μM. 14-3-3 zeta was then infused across a sensor chip surface which had been previously coupled with the phosphorylated Raf-259 peptide (SEQ ID NO: 4). IC50 values were determined by plotting the concentration of competitor peptide required to achieve a 50% reduction in equilibrium binding.
# 14-3-3 tau = target: T2, 14-3-3 tau (Homo sapiens, UniProt P27348); assay: SPR competitive inhibition of 14-3-3 tau binding to phosphorylated Raf-259 peptide; conditions: isoform tau
# T2 construct: made in house; host or cells: E. coli DH5α (vector pGEX-KT)
# T2 sequence (P27348 1-245): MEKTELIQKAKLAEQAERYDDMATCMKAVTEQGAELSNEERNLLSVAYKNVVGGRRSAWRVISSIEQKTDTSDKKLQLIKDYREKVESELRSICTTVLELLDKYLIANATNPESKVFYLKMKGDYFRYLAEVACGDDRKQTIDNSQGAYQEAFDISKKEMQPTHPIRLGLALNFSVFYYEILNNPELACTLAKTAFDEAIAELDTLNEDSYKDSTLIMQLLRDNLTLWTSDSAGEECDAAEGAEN
# Experimental: as §1
# (§2) There are seven known isoforms of 14-3-3 which form homo- and heterodimers in vivo. If different isoforms of 14-3-3 could bind to proteins with distinct specificities, heterodimeric forms of 14-3-3 might function as modular linker proteins, bringing together different proteins into a single complex. We were, therefore, interested in determining whether different 14-3-3 isoforms recognize phosphoserine in a sequence specific fashion. This hypothesis was tested by expressing and purifying three other 14-3-3 isoforms, eta, beta and tau, and measuring their affinity towards the panel of phosphorylated peptides generated above. Using the Surface Plasmon Resonance method, the "on" and "off" rates for 14-3-3 binding to the phosphorylated Raf-259 peptide were calculated (Table 6).
# (§3) Competitive inhibition with the mutated phosphorylated Raf-1 peptides was used to determine whether their specificities were similar (Table 7). In each case, the calculated IC50 s were very similar to those calculated for 14-3-3 zeta.
# 14-3-3 protein = target: T3, 14-3-3 protein (Homo sapiens, UniProt P63104); assay: Degenerate peptide pools tested as competitive inhibitors of 14-3-3 binding; conditions: competitor peptide 10 μM; no peptide = 100%
# T3 sequence (P63104 1-245): T1 sequence (P63104 1-245)
# Experimental: A series of degenerate peptides based upon phosphoserine Raf-621 peptide (SEQ ID NO: 10) were synthesized to confirm that the arginine in the -3 position, the serine in the -2 position and the proline in the +2 position were the critical motif residues (Table 5). Six pools of peptides were synthesized with all twenty amino acids placed in positions -5, -3, -2, -1, +1 and +2 respectively. Each pool of twenty peptides was tested as competitive inhibitors for binding. We reasoned that if a particular position is not critical for binding, the pool of twenty peptides should compete as well as wild-type peptide for binding. On the other hand, if a particular amino acid is required at a particular position, only a small fraction of the pool will be able to compete for binding, thus increasing (up to 20 fold) the concentration of peptide needed to inhibit binding.
# 14-3-3 beta = target: T4, 14-3-3 beta (Homo sapiens, UniProt P31946); assay: SPR competitive inhibition of 14-3-3 beta binding to phosphorylated Raf-259 peptide; conditions: isoform beta
# T4 construct: made in house; host or cells: E. coli DH5α (vector pGEX-KT)
# T4 sequence (P31946 1-246): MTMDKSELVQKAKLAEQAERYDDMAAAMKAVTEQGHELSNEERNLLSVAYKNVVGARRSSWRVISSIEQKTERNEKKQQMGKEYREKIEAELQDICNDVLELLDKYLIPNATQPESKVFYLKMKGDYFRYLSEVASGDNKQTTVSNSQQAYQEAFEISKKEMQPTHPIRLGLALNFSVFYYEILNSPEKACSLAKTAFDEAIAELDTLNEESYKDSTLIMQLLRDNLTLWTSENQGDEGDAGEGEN
# Experimental: as §1, §2, §3
# 14-3-3 eta = target: T5, 14-3-3 eta (Homo sapiens, UniProt Q04917); assay: SPR competitive inhibition of 14-3-3 eta binding to phosphorylated Raf-259 peptide; conditions: isoform eta
# T5 construct: made in house; host or cells: E. coli DH5α (vector pGEX-KT)
# T5 sequence (Q04917 1-246): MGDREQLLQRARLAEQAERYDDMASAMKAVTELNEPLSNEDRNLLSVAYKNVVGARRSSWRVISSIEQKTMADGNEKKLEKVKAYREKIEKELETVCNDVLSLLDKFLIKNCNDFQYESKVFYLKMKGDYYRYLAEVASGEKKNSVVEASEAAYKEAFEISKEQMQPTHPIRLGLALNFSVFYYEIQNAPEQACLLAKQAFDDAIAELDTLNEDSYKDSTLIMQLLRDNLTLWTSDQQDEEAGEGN
# Experimental: as §1, §2, §3
displacement of bound labeled phosphorylated peptide from 14-3-3 zeta (14-3-3 zeta [1]),SMILES,IC50 (14-3-3 zeta [2]),IC50 (14-3-3 tau),% BINDING @ 10 μM (14-3-3 protein),IC50 (14-3-3 beta),IC50 (14-3-3 eta)
Neither,"N[C@@H](COP(=O)(O)O)C(=O)O [free phosphoserine, phosphoserine]",,,,,
,"CC[C@H](C)[C@H](NC(=O)[C@H](CCCCN)NC(=O)[C@@H]1CCCN1C(=O)[C@@H](N)CC(C)C)C(=O)N[C@@H](CC(N)=O)C(=O)N[C@@H](CCCNC(=N)N)C(=O)N[C@@H](CO)C(=O)N[C@@H](C)C(=O)N[C@@H](COP(=O)(O)O)C(=O)N[C@@H](CCC(=O)O)C(=O)N1CCC[C@H]1C(=O)N[C@@H](CO)C(=O)N[C@@H](CC(C)C)C(=O)N[C@@H](Cc1c[nH]cn1)C(=O)N[C@@H](CCCNC(=N)N)C(=O)O [pS-Raf-621, Leu-Pro-Lys-Ile-Asn-Arg-Ser-Ala-Xaa-Glu-Pro-Ser-Leu-His-Arg] (H-LPKINRSA[pS]EPSLHR-OH)",~1000 nM and 1000 nM,2000 nM,< 5%,2000 nM,3000 nM
